# Measured values from patent US8362203B2, “Non-natural peptides as models for the development of antibiotics” (priority 2009, dated 2013).
# Experiments:
# [1] = tested on: E. coli h31 RNA (ECh31WT); test: SPR kinetic analysis of binding to immobilized biotinylated helix 31 RNA
# Procedure: SPR methods. All immobilization and subsequent binding studies were performed using a BIAcore 2000 instrument set at a temperature of 25° C. Standard dextran surface BIAcore sensorchips (Sensor chip CM5) were purchased from BIAcore. Standard desorb and sanitize routines were performed according to the BIAcore guidelines before docking a new CM5 sensor chip. All buffers were filtered through sterile 0.2 μm nylon membranes (Millipore™) under vacuum. Before derivatizing the flow cells with streptavidin, the CM5 sensor chip was pre-conditioned using three successive 10 μl injections of chip-preparation solution (10 mM NaOH, 500 mM NaCl) at 100 μl/min, followed by a normalization routine using BIAnormalizing solution (40% glycerol). Streptavidin derivatization was performed as described in Chapter 3. Prior to immobilization, the solution of biotinylated RNA in HBS-EP buffer (10 mM HEPES, 3 mM EDTA, 150 mM NaCl, 0.005% P20 at pH 7.4) was renatured by heating to 90° C. for 2 min followed by placing on ice. Flow cells were functionalized by injecting 30 μl of RNA at a time using the MANUAL INJECT command at a flow rate of 10 μl/min, until the desired immobilization level is reached. One of the flow cells was used to immobilize RNA (typically FC4), while another one adjacent to it (FC3) remained unmodified to serve as a blank-control for matrix effects. Levels of RNA captured were calculated by subtracting […] for each flow cell. After RNA immobilization, FC3 and FC4 were blocked with 100 μL of 1 mg/mL biotin at 5 μL/min.
# Peptide samples were prepared by serial dilutions from stock solutions into micro-centrifuge tubes. Dilutions are made by the same running buffer to avoid buffer mismatches. […]
# Biotinylated helix 31 RNA was immobilized onto a streptavidin-coated CM5 chip and differing concentrations of 17 (TYLPWPA)-GFP (“TYLPWPA” disclosed as SEQ ID NO: 2) were injected as the analyte. […] Finally, the apparent dissociation constants were determined under optimized conditions. […]
# [2] = tested on: E. coli helix 31 hairpin RNA (ECh31WT); test: Circular dichroism titration of helix 31 RNA with peptide; format: binding; conditions: 0.5 μM h31, 100 mM NaCl, 10 mM sodium phosphate, 0.1 mM Na2EDTA, pH 7; CD at 270 nm; read-out: apparent KD (circular dichroism)
# Procedure: Binding studies with CD. The titration was performed by adding increasing concentrations of peptide (10-80 μM) to 1 mL of 0.5 μM ECh31WT RNA in 10 mM sodium phoshate, 100 mM NaCl, 0.1 mM Na2EDTA at pH 7, and incubated for 2 min for each concentration point followed by spectrum scanning. Prior to titration, the RNA was renatured as described in Chapter 3, Section 3.2.2. RNA-peptide binding was determined by observing CD changes at 270 nm upon addition of peptide to the sample. The CD at 270 nm was converted to a fraction bound ratio and the dissociation constant (KD) of RNA-peptide binding was determined by curve fitting using the Kaleidagraph™ 3.0 program, as described in Chapter 3, Section 3.2.4.
# Circular dichroism studies. CD was employed to assess the conformational changes in helix 31 upon binding of the peptide. […] Conformational changes in helix 31 measured by circular dichroism spectroscopy was performed in 100 mM NaCl, 10 mM sodium phosphate, and 0.1 mM Na2EDTA at pH 7. […] The dissociation constant (KD) of RNA-peptide binding was determined by plotting Fr versus peptide concentration, and by curve fitting to Equation, Fr=[P]^n/([P]^n+KD^n) where [P] is the peptide concentration, n is the Hill coefficient, and KD is the apparent dissociation constant (FIG. 56B). […]
# [3] = tested on: E. coli helix 31 hairpin RNA (ECh31WT); test: Fluorescence titration of 5′-fluorescein-labeled helix 31 RNA with peptide; format: binding; conditions: 0.5 μM h31, 10 mM HEPES, 50 mM NaCl, 1 mM Na2EDTA, pH 7.5, 25° C.; hyperbolic curve fitting; read-out: apparent KD (fluorescence)
# Procedure: Fluorescence methods. Fluorescence measurements were taken on a RF-5301PC spectrofluorometer (Shimadzu) at 25° C. using a 1 cm path-length quartz fluorometer cell. The emission spectra were acquired by scanning between 500 and 600 nm with an excitation wavelength of 494 nm, slit widths of 3 nm for excitation and emission. The fluorescent titrations were performed by adding increasing concentrations of peptide (5-150 μM) to 350 μl of 0.5 μM 5′-fluorescein-labeled helix 31 RNA in HEPES buffer (10 mM HEPES, 50 mM NaCl, 1 mM Na2EDTA at pH 7.5) and incubated for 2 min for each concentration point followed by spectrum scanning. […] RNA-peptide binding was determined by quenching of the fluorescence intensity upon addition of peptide to the sample. The fluorescence intensity at 523 nm was converted to a fraction bound ratio and the dissociation constant (KD) of RNA-peptide binding was determined by curve fitting using the Kaleidagraph™ 3.0 program, as described in Chapter 3, Section 3.5.3
# Fluorescence titration assay. […] In this experiment, the fluorescence intensity decreased upon increases in the peptide concentration (FIG. 54); however, the percent change in the observed fluorescence intensity was fairly small (7%). […]
# The relatively poor fits may be a result of the fact that the fluorescence changes are quite small leading to greater error. […]
substance,measurement,setting,value
"TYLPWPA [peptide 17, 7-mer peptide selected by phage display against helix 31 RNA]",affinity for helix 31 RNA (in words),[1],moderate affinity
same,"KD (SPR, kd/ka)","[1]; Langmuir 1:1 model, same running buffer, pH 7.5, 50 μL/min",28 ± 1 µM
same,"SPR response due to binding, free peptide as analyte",[1]; peptide without GFP,negligible responses
same,Kd,[2],28 ± 10 µM
same,Kd,[3],27 ± 4 µM
